Measurements reported in BindingDB's records for doi:10.1111/cbdd.12867 (Jishou University, 2017).
pIC50: −log10 of the molar value.

What follows are compounds tested against Alpha-glucosidase MAL32 (Saccharomyces cerevisiae (strain ATCC 204508 / S288c), UniProt P38158) (assay: In Vitro α-Glucosidase Inhibitory Assay). Details: pH 6.8.
Experimental: The test compounds were dissolved in DMSO to prepare the required distributing concentration. α-Glucosidase inhibitory activity was assayed using 0.1 m phosphate buffer (pH 6.8) at 37°C. The enzyme (0.1 U/ml) in phosphate-buffered saline was incubated with various concentrations of test compounds at 37°C for 15 min. Then, 1.25 mm p-nitrophenyl α-D-glucopyranoside was added to the mixture as a substrate.After further incubation at 37°C for 30 min, the absorbance was measured spectrophotometrically at 405 nm. The sample solution was replaced by DMSO as a control. Acarbose was used as a positive control. All experiments were carried out in triplicates.

Sequence of Alpha-glucosidase MAL32 (P38158 whole entry): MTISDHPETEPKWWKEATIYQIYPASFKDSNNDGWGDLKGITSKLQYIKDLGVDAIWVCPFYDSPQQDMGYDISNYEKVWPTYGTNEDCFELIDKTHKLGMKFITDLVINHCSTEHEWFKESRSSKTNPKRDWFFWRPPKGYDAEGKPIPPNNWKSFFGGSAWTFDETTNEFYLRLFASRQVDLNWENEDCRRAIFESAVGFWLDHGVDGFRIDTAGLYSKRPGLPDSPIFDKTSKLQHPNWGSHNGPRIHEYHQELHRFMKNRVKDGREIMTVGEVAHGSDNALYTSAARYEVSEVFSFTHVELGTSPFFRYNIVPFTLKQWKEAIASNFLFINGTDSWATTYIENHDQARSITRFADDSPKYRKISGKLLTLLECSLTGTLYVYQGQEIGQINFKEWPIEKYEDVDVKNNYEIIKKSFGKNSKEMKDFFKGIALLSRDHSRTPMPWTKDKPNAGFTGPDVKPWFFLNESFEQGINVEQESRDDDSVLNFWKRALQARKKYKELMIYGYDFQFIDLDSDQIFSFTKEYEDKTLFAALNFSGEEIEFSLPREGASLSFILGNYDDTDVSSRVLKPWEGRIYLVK

pIC50	SMILES
3.73	O=C(COc1ccc2ccc(=O)oc2c1)N/N=C1\C(=O)Nc2ccccc21 [(Z)-2-((2-oxo-2H-chromen-7-yl)oxy)-N'-(2-oxoindolin-3-ylidene)acetohydrazide (5a)]
5.14	O=C(COc1ccc2ccc(=O)oc2c1)N/N=C1\C(=O)N(Cc2ccccc2Cl)c2ccccc21 [(Z)-N'-(1-(2-chlorobenzyl)-2-oxoindolin-3-ylidene)-2-((2-oxo-2H-chromen-7-yl)oxy)acetohydrazide (5l)]
5.13	O=C(COc1ccc2ccc(=O)oc2c1)N/N=C1\C(=O)N(Cc2ccccc2F)c2ccccc21 [(Z)-N'-(1-(2-fluorobenzyl)-2-oxoindolin-3-ylidene)-2-((2-oxo-2H-chromen-7-yl)oxy)acetohydrazide (5j)]
4.18	Cc1ccc2c(c1)/C(=N/NC(=O)COc1ccc3ccc(=O)oc3c1)C(=O)N2Cc1ccccc1F [(Z)-N'-(1-(2-fluorobenzyl)-5-methyl-2-oxoindolin-3-ylidene)-2-((2-oxo-2H-chromen-7-yl)oxy)acetohydrazide (5n)]
5.03	O=C(COc1ccc2ccc(=O)oc2c1)N/N=C1\C(=O)N(Cc2cccc(F)c2)c2ccccc21 [(Z)-N'-(1-(3-fluorobenzyl)-2-oxoindolin-3-ylidene)-2-((2-oxo-2H-chromen-7-yl)oxy)acetohydrazide (5k)]
4.11	Cc1ccc2c(c1)/C(=N/NC(=O)COc1ccc3ccc(=O)oc3c1)C(=O)N2Cc1cccc(F)c1 [(Z)-N'-(1-(3-fluorobenzyl)-5-methyl-2-oxoindolin-3-ylidene)-2-((2-oxo-2H-chromen-7-yl)oxy)acetohydrazide (5o)]
5.39	O=C(COc1ccc2ccc(=O)oc2c1)N/N=C1\C(=O)N(Cc2ccc(Br)cc2)c2ccccc21 [(Z)-N'-(1-(4-bromobenzyl)-2-oxoindolin-3-ylidene)-2-((2-oxo-2H-chromen-7-yl)oxy)acetohydrazide (5m)]
4.85	O=C(COc1ccc2ccc(=O)oc2c1)N/N=C1\C(=O)N(Cc2ccccc2)c2ccccc21 [(Z)-N'-(1-benzyl-2-oxoindolin-3-ylidene)-2-((2-oxo-2H-chromen-7-yl)oxy)acetohydrazide (5i)]
5.35	O=C(COc1ccc2ccc(=O)oc2c1)N/N=C1\C(=O)N(Cc2ccccc2)c2ccc(Br)cc21 [(Z)-N'-(1-benzyl-5-bromo-2-oxoindolin-3-ylidene)-2-((2-oxo-2H-chromen-7-yl)oxy)acetohydrazide (5r)]
3.57	CN1C(=O)/C(=N\NC(=O)COc2ccc3ccc(=O)oc3c2)c2ccccc21 [(Z)-N'-(1-methyl-2-oxoindolin-3-ylidene)-2-((2-oxo-2H-chromen-7-yl)oxy)acetohydrazide (5h)]
3.70	Cc1cc(C)c2c(c1)/C(=N/NC(=O)COc1ccc3ccc(=O)oc3c1)C(=O)N2 [(Z)-N'-(5,7-dimethyl-2-oxoindolin-3-ylidene)-2-((2-oxo-2H-chromen-7-yl)oxy)acetohydrazide (5c)]
5.55	O=C(COc1ccc2ccc(=O)oc2c1)N/N=C1\C(=O)N(Cc2ccccc2Cl)c2ccc(Br)cc21 [(Z)-N'-(5-bromo-1-(2-chlorobenzyl)-2-oxoindolin-3-ylidene)-2-((2-oxo-2H-chromen-7-yl)oxy)acetohydrazide (5s)]
5.40	O=C(COc1ccc2ccc(=O)oc2c1)N/N=C1\C(=O)N(Cc2ccc(Br)cc2)c2ccc(Br)cc21 [(Z)-N'-(5-bromo-1-(4-bromobenzyl)-2-oxoindolin-3-ylidene)-2-((2-oxo-2H-chromen-7-yl)oxy)acetohydrazide (5t)]
4.85	O=C(COc1ccc2ccc(=O)oc2c1)N/N=C1\C(=O)Nc2ccc(Br)cc21 [(Z)-N'-(5-bromo-2-oxoindolin-3-ylidene)-2-((2-oxo-2H-chromen-7-yl)oxy)acetohydrazide (5f)]
5.54	O=C(COc1ccc2ccc(=O)oc2c1)N/N=C1\C(=O)N(Cc2cccc(F)c2)c2ccc(Cl)cc21 [(Z)-N'-(5-chloro-1-(3-fluorobenzyl)-2-oxoindolin-3-ylidene)-2-((2-oxo-2H-chromen-7-yl)oxy)acetohydrazide (5q)]
3.81	O=C(COc1ccc2ccc(=O)oc2c1)N/N=C1\C(=O)Nc2ccc(Cl)cc21 [(Z)-N'-(5-chloro-2-oxoindolin-3-ylidene)-2-((2-oxo-2H-chromen-7-yl)oxy)acetohydrazide (5e)]
4.92	O=C(COc1ccc2ccc(=O)oc2c1)N/N=C1\C(=O)Nc2ccc(F)cc21 [(Z)-N'-(5-fluoro-2-oxoindolin-3-ylidene)-2-((2-oxo-2H-chromen-7-yl)oxy)acetohydrazide (5d)]
3.94	Cc1ccc2c(c1)/C(=N/NC(=O)COc1ccc3ccc(=O)oc3c1)C(=O)N2 [(Z)-N'-(5-methyl-2-oxoindolin-3-ylidene)-2-((2-oxo-2H-chromen-7-yl)oxy)acetohydrazide (5b)]
5.02	O=C(COc1ccc2ccc(=O)oc2c1)N/N=C1\C(=O)Nc2ccc([N+](=O)[O-])cc21 [(Z)-N'-(5-nitro-2-oxoindolin-3-ylidene)-2-((2-oxo-2H-chromen-7-yl)oxy)acetohydrazide (5g)]

SMILES	pIC50
O=C(COc1ccc2ccc(=O)oc2c1)N/N=C1\C(=O)N(Cc2ccccc2F)c2ccc(Cl)cc21 [(Z)-N'-(5-chloro-1-(2-fluorobenzyl)-2-oxoindolin-3-ylidene)-2-((2-oxo-2H-chromen-7-yl)oxy)acetohydrazide (5p)]	5.59
